The values below come from the supplement of paper PMC4862054.

What all share (details): incubation time: 72 h
The subject of test [1] is HDQ-P1. Briefly: drug sensitivity score (DSS), CellTiter-Blue viability (DSS (AUC-based score)); higher = stronger viability inhibition; extreme values may be limits of the assay. The protocol: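 DSRT with the CellTiter-Blue (resazurin reduction) viability readout, fluorescence 560/590 nm, 72 h incubation. Plates were normalised to DMSO and benzethonium chloride controls. DSS is computed from the area under the fitted dose-response curve (5 or 9 concentrations).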
(The colour change of resazurin is a common sign of viable cells or microbes.)

In test [2] the test system is SK-BR-3. The test is described as follows: normalised viability (% of control), CellTiter-Blue; higher = more viable cells (about 100 = DMSO control). The protocol: (§1)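 DSRT, CellTiter-Blue viability, 72 h incubation. Signal is normalised to DMSO and benzethonium chloride controls. Value is the normalised response at dose 3.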
Test [3] deals with HCC1143. The test is described as above. The protocol:
as §1

Test [4] concerns HCC1599. Described as above. The protocol:
as §1

The subject of test [5] is MDA-MB-468. The description is as above. The protocol:
as §1

In test [6] the test system is HDQ-P1. The test is described as above. The protocol: as §1
The test system of test [7] is MDA-MB-453. The description is as above. The protocol:
as §1

The test system of test [8] is BT-474. The description is as above. The protocol: as §1
Test [9] has as its system CAL-85-1. Described as above. The protocol: as §1
Test [10] relates to MDA-MB-231. The description is as above. The protocol: as §1
Test [11] deals with CAL-120. Described as above. The protocol: as §1
Test [12] concerns CAL-148. Described as above. The protocol:
as §1

Test [13] deals with CAL-51. Described as above. The protocol: as §1
The subject of test [14] is MFM-223. The test is described as above. The protocol: as §1
Test [15] relates to Hs578T. The description is as above. The protocol:
as §1

Test [16] concerns HCC1937. The test is described as above. The protocol:
as §1

In test [17] the test system is BT-549. Described as above. The protocol: as §1
For test [18], the system named is MDA-MB-436. The description is as above. The protocol: as §1
The test system of test [19] is DU-4475. The description is as above. The protocol:
as §1

For test [20], the system named is MDA-MB-231. The test is described as follows: drug sensitivity score (DSS), CellTox Green (DSS (AUC-based score)); higher = stronger drug effect (viability inhibition or cytotoxicity); extreme values may be limits of the assay. An outline of the steps:
(§2)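 Using 20 µl of cell suspension per well, breast cancer cell lines were seeded into 384-well plates pre-loaded with compound at 5 concentrations in 10-fold steps across a compound-specific 10,000-fold range. Incubation lasted 72 h, after which CellTox Green fluorescence at 485/520 nm and then CellTiter-Glo luminescence, following 10 min at room temperature, were recorded. Each plate was normalised to 0.1 % DMSO and a positive kill control before the drug sensitivity score was derived from the area under the fitted dose-response curve.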

Test [21] deals with Hs578T. Described as above. An outline of the steps:
as §2

Test [22] concerns HCC1937. Described as above. The method, boiled down: as §2

Consider `Cc1c2oc3c(C)ccc(C(=O)N[C@@H]4C(=O)N[C@H](C(C)C)C(=O)N5CCC[C@H]5C(=O)N(C)CC(=O)N(C)[C@@H](C(C)C)C(=O)O[C@@H]4C)c3nc-2c(C(=O)N[C@@H]2C(=O)N[C@H](C(C)C)C(=O)N3CCC[C@H]3C(=O)N(C)CC(=O)N(C)[C@@H](C(C)C)C(=O)O[C@@H]2C)c(N)c1=O` [Dactinomycin], for which the drug sensitivity score in test [1] was 28.5; in test [20], 20.5; in test [21], 12.5; in [22], 0. Further, the normalised viability in [2] (10 nM) turned out to be 24.6%; in [3] (10 nM), 46.5%; in test [4] (10 nM) it was 49.3%; in [5] (10 nM) it was 18.9%; in [6] (1 nM) it was 59.2%; in test [7] (1 nM), 49.7%. Further, the normalised viability in test [8] (10 nM) stood at 73.5%; in test [9] (1 nM) it was 50.3%; in test [10] (10 nM) it was 27.3%; in [11] (10 nM), 31.4%; in test [12] (1 nM) it was 46.5%; in [13] (1 nM), 77%. The normalised viability in test [14] (10 nM) is 67.5%; in test [15] (10 nM), 23.3%; in [16] (10 nM) it was 41.3%; in test [17] (10 nM), 17.8%; in [18] (10 nM), 46.4%; in [19] (1 nM), 32.1%.

As to `COc1cccc2c1C(=O)c1c(O)c3c(c(O)c1C2=O)C[C@@](O)(C(=O)CO)C[C@@H]3O[C@H]1C[C@H](N)[C@H](O)[C@H](C)O1` [Doxorubicin], the drug sensitivity score in test [1] stood at 7; in [20], 0; in test [21], 0; in test [22] it was 0. The normalised viability in [2] (10 nM) amounted to 75.6%; in [3] (10 nM), 83.4%; in test [4] (10 nM), 102%; in test [5] (10 nM) it was 98.8%; in test [6] (1 nM), 108%; in test [7] (1 nM) it was 99.1%. The normalised viability in test [8] (10 nM) is 95.5%; in test [9] (1 nM), 95.7%; in test [10] (10 nM), 78.6%; in test [11] (10 nM) it was 84.6%; in test [12] (1 nM), 96.6%; in [13] (1 nM) it was 105%. In addition, the normalised viability stood at 89.4% in [14] (10 nM); 99.5% in test [15] (10 nM); 98.9% in test [16] (10 nM); 98.9% in test [17] (10 nM); 92.4% in test [18] (10 nM); 103% in [19] (1 nM).

On to `Cc1ccc(F)c(NC(=O)Nc2ccc(-c3cccc4[nH]nc(N)c34)cc2)c1` [Linifanib], for which the drug sensitivity score in test [1], in test [20], in test [21] and in test [22] was 0 each time. Moreover, the normalised viability was found to be 119% in test [2] (10 nM); 89.4% in test [3] (10 nM); 108% in test [4] (10 nM); 123% in [5] (10 nM); 108% in test [6] (1 nM); 106% in [7] (1 nM). Also, the normalised viability in test [8] (10 nM) stood at 111%; in [9] (1 nM) it was 99%; in [10] (10 nM) it was 103%; in [11] (10 nM), 95.2%; in test [12] (1 nM), 104%; in test [13] (1 nM) it was 102%. In addition, the normalised viability in [14] (10 nM) was found to be 102%; in test [15] (10 nM) it was 82.9%; in test [16] (10 nM), 109%; in test [17] (10 nM), 94.8%; in [18] (10 nM), 124%; in test [19] (1 nM) it was 96.5%.

Turning to `S=c1[nH]cnc2nc[nH]c12` [Mercaptopurine], the drug sensitivity score in test [1], in [20], in [21] and in [22] was 0 in each case. The normalised viability in test [2] (100 nM) was 94%; in [3] (100 nM), 92%; in [4] (100 nM), 93.5%; in test [5] (100 nM) it was 108%; in test [6] (10 nM) it was 106%; in test [7] (10 nM), 113%. Moreover, the normalised viability worked out at 111% in test [8] (100 nM); 93.9% in test [9] (10 nM); 99.8% in test [10] (100 nM); 90.2% in test [11] (100 nM); 94.1% in [12] (10 nM); 108% in test [13] (10 nM). Also, the normalised viability in [14] (100 nM) is 93.6%; in test [15] (100 nM) it was 113%; in test [16] (100 nM), 104%; in [17] (100 nM), 106%; in [18] (100 nM) it was 121%; in test [19] (10 nM), 130%.

Consider `COc1cccc2cc(-c3nc([C@H]4CC[C@H](C(=O)O)CC4)n4ncnc(N)c34)[nH]c12` [OSI-027], for which the drug sensitivity score in [1] amounted to 14.9; in test [20] it was 0; in test [21], 0; in [22], 0. The normalised viability in test [2] (100 nM) was 48.6%; in test [3] (100 nM), 119%; in [4] (100 nM), 88.9%; in test [5] (100 nM), 84.4%; in test [6] (10 nM), 78.5%; in test [7] (10 nM), 80.9%. The normalised viability in test [8] (100 nM) was 95.1%; in test [9] (10 nM), 92.8%; in test [10] (100 nM) it was 72.1%; in test [11] (100 nM), 91.9%; in [12] (10 nM), 92.6%; in test [13] (10 nM) it was 95.4%. The normalised viability in test [14] (100 nM) came out at 73.7%; in test [15] (100 nM), 84.1%; in test [16] (100 nM) it was 84%; in test [17] (100 nM) it was 71.9%; in [18] (100 nM), 74.1%; in test [19] (10 nM), 105%.

As to `OC[C@H]1O[C@@H](n2cnc3c2N=CNC[C@H]3O)C[C@@H]1O` [Pentostatin], the drug sensitivity score in test [1], in test [20], in test [21] and in test [22] was 0 throughout. Further, the normalised viability in test [2] (100 nM) turned out to be 97.6%; in test [3] (100 nM), 112%; in test [4] (100 nM), 97.6%; in test [5] (100 nM), 107%; in test [6] (10 nM), 106%; in [7] (10 nM) it was 104%. In addition, the normalised viability in test [8] (100 nM) came out at 109%; in test [9] (10 nM) it was 103%; in test [10] (100 nM), 94.9%; in test [11] (100 nM) it was 103%; in test [12] (10 nM), 111%; in test [13] (10 nM), 88.4%. Also, the normalised viability in test [14] (100 nM) stood at 95.8%; in [15] (100 nM), 91.5%; in test [16] (100 nM) it was 106%; in test [17] (100 nM) it was 80.9%; in test [18] (100 nM), 99.1%; in test [19] (10 nM) it was 109%.
